In series [1] the test system is zebrafish larvae. Description: In vivo maximum-tolerated concentration (MTC) study in zebrafish larvae. Details: species or system zebrafish (Danio rerio). As to conditions: for Survival rate: 24-h treatment, fifteen larvae. How it is done: Internal protocols based on published standard methods (Westerfield, [2007]) were used to perform zebrafish husbandry and the maximum-tolerated concentration (MTC) testing was based on a previous study (Richter et al., [2019a]). Danieau's medium [17 mM NaCl, 2 mM KCl, 0.12 mM MgSO4, 1.8 mM Ca(NO3)2, 1.5 mM HEPES, pH 7.1–7.3, and 1.2 μM methylene blue] at 28°C was used to raise zebrafish larvae of the AB wild-type strain. For MTC testing, 96-well plates were used with 100 μl of medium and one larva per well. Drug exposition was started 4 dpf using 0, 0.01, 0.1, 1, 10, 50, or 100 μM final concentrations of 3,4-DMA-NBOMe, ephylone, 4F-MDMB-BINACA, 4F-PHP, or 1P-LSD, respectively. The drug exposure in the incubator at 28°C lasted 24 h. The final DMSO concentration was 1% (v/v) for all experiments. Monitoring of the larvae was done using a LEICA M205 FA stereo microscope (Leica Mikrosysteme Vertrieb GmbH, Wetzlar, Germany) to detect developmental defects and/or decreased survival rates. Fifteen larvae were used for each experiment.

For series [2] the following is noted: ref Wagmann et al., cited from earlier work.
The conditions of series [3]: after subcutaneous administration of 1P-LSD to rats; ref Halberstadt et al., [2019]; cited from earlier work.
Series [4] concerns HepaRG cells. Description: Incubations with HepaRG cells, metabolite identification by LC-HRMS/MS. Format: in vitro ADME, human. As to conditions: 24 h.
Series [5] deals with monooxygenases. As to conditions: initial monooxygenases activity screenings described elsewhere; ref Caspar et al., [2018a]; Wagmann et al., [2019b],[c]; cited from earlier work.
The conditions of series [6]: after assumed consumption of a blotter containing 1P-LSD; ref Grumann et al., [2019]; cited from earlier work.
Series [7] deals with zebrafish larvae. Description: Zebrafish larvae exposure, metabolite identification by LC-HRMS/MS. As to conditions: 24 h.

This is an account of results in publication PMC7380166, “How to Study the Metabolism of New Psychoactive Substances for the Purpose of Toxicological Screenings—A Follow-Up Study Comparing Pooled Human Liver S9, HepaRG Cells, and Zebrafish Larvae” (Frontiers in Chemistry, 2020).

Take `CCC(=O)n1cc2c3c(cccc31)C1=C[C@@H](C(=O)N(CC)CC)CN(C)[C@@H]1C2` [Metabolite 1P-LSD, 1-propionyl-d-lysergic acid diethylamide]: the Survival rate in series [1] (0.01 μM, larvae 4 dpf) worked out at 100%; in series [1] (0.1 μM, larvae 4 dpf) it was 100%; in series [1] (1 μM, larvae 4 dpf) it was 100%; in series [1] (10 μM, larvae 4 dpf), 100%; in series [1] (50 μM, larvae 4 dpf) it was 100%; in series [1] (100 μM, larvae 4 dpf), 100%. Besides, the “Survival rates for all tested concentrations” value in series [1] (0.01 to 100 μM, larvae 4 dpf, 24 h) was found to be 100%. For the same molecule, the “Concentration considered non-toxic for zebrafish larvae (4 dpf)” value in series [1] (24 h exposure via medium) was determined as 100 µM. Besides, the Malformations result in series [1] (up to 100 μM, larvae 4 dpf, 24 h) is reported as “no malformations”. Moreover, in series [2] (25 μM, [2019c]), the “Number of phase I metabolites detected, pHLS9 [25 μM]” value is 8 (Wagmann et al., [2019c]). Also, in series [2] (25 μM, [2019c]), the “Number of phase II metabolites detected, pHLS9 [25 μM]” value was 0 (Wagmann et al., [2019c]). In addition, the “Detection in pHLS9 [25 µM]” value in series [2] (1P-LSD and metabolites, n = 2, according to literature, 2019b) was “+”. In addition, the “Detection in rat plasma” value in series [3] is given as “able to detect”. In addition, the “Absolute peak area, HepaRG [25 μM]” value in series [4] (25 μM parent NPS, cell culture medium, one replicate of n = 3, n.d. = not detected) came to 3.60E+07. For the same molecule, in series [4] (25 μM), the “Number of phase I metabolites detected, HepaRG [25 μM]” value worked out at 14. Further, the “Number of phase II metabolites detected, HepaRG [25 μM]” value in series [4] (25 μM) came to 1. For the same molecule, the “Absolute peak area, HepaRG [250 μM]” value in series [4] (250 μM parent NPS, cell culture medium, one replicate of n = 3, n.d. = not detected) was 5.41E+06. Moreover, the “Number of phase I metabolites detected, HepaRG [250 μM]” value in series [4] (250 μM) is recorded as 15. Moreover, in series [4] (250 μM), the “Number of phase II metabolites detected, HepaRG [250 μM]” value is 2. The “Monooxygenases involved in metabolism” value in series [5] is “N-dealkylated and hydroxylated exclusively by CYP3A4”. The “Detection in serum and urine samples of an intoxicated patient” value in series [6] is reported as “could not be detected”. Further, the “Number of phase I metabolites detected, Zebrafish larvae” value in series [7] (100 μM in medium) is recorded as 22. Moreover, the “Number of phase II metabolites detected, Zebrafish larvae” value in series [7] (100 μM in medium) is 3. The “Absolute peak area, Zebrafish larvae [100 µM]” value in series [7] (100 µM parent NPS in medium, larvae 4 dpf, larvae extract, one replicate of n = 3, n.d. = not detected) stood at 2.92E+09.
